Source: patent US9884806B2, “Cyclic vinylogous amides as bromodomain inhibitors” (ICAHN SCHOOL OF MEDICINE AT MOUNT SINAI, priority 2013, dated 2018)

Assays:
BRD4_2 = target: T1, BRD4_2 (Homo sapiens, UniProt O60885); test: Fluorescence anisotropy binding assay (competition with FITC-labeled MS417 probe), BRD4_2; settings: FITC-MS417 probe 80 nM, PBS pH 7.4, 1 hour, 25° C.
T1 construct: contains two tandem bromodomains (BrD1 and BrD2)

[1] = target: T2, first bromodomain (BrD1) of human BRD4 (Homo sapiens, UniProt O60885); test: Fluorescence anisotropy binding assay (competition with FITC-labeled MS417 probe); settings: FITC-MS417 probe 80 nM, PBS pH 7.4, 1 hour, 25° C., read-out: BRD4_1 IC50
T2 construct: the first bromodomain (BrD1) of human BRD4; poly-His (cleaved yes); made in house
Procedure: Fluorescence Anisotropy Binding Assay
Expression and purification of the first bromodomain (BrD1) of human BRD4 in poly-His tag form was performed using a procedure described in the literature [See Zeng et al. Structure 16, 643-652 (2008) and Zhang et al., J Biol Chem 287, 28840-28851 (2012).] The protein was purified by using affinity chromatography on a nickel-IDA column (Invitrogen), followed by the removal of poly-His tag by thrombin cleavage.
Binding affinity of the newly synthesized compounds to the BRD4 BrD1 was assessed in a fluorescence anisotropy assay using a fluorescein isothiocyanate (FITC)-labeled MS417 as an assay probe (Zhang et al. 2008 op.cit.). Competition binding was performed with a BrD protein (0.25 to 1 μM) and the fluorescent probe (80 nM), and increasing concentration of unlabeled competing ligand in a PBS buffer (pH 7.4) in total volume of 80 μL. Measurements were obtained after 1 hour incubation of the fluorescent ligand and the protein at 25° C. with Safire 2 microplate reader (Tecan). In the assay, fluorescent ligand concentration was ≦2Kd, and protein concentration was set at which 50-80% of fluorescent ligand is bound. Dissociation constant of a competing ligand was calculated with the correction to Cheng-Prussoff equation introduced by Nicolovska-Coleska and colleagues [Nikolovska-Coleska, Z. et al., Anal Biochem 332, 261-273 (2004). Assuming one-site competitive binding model, the equation used to calculate Ki's from IC50 values recovered from fitting data using Prism:
[formula] where [I50] is the concentration of free inhibitor at 50% inhibition, [L50], the concentration of free labeled ligand at 50% inhibition, and [P0], concentration of free protein at 0% inhibition. Note that Kd for each protein-probe pair is the limit of resolvable Ki in a competition assay.

Row | SMILES | IC50 (BRD4_2) | IC50 [1]
1 | COC(=O)c1ccc(NC2=C(C)C(=O)CC2)c(Cl)c1 [Example 01-11, methyl 3-chloro-4((2-methyl-3-oxocyclopent-1-en-1-yl)amino)benzoate] | 1 to 10 µM | 1 to 10 µM
2 | CC1=C(Nc2ccc(C(=O)Nc3cccc(C)c3)c(Cl)c2)CCC1=O [Example 04-50, 2-chloro-4-((2-methyl-3-oxocyclopent-1-en-1-yl)amino)-N-(m-tolyl)benzamide] | > 10 µM | > 10 µM
3 | CC1=C(Nc2ccc(C(=O)Nc3ccccc3)cc2Cl)CCC1=O [Example 04-16, 3-chloro-4-((2-methyl-3-oxocyclopent-1-en-1-yl)amino)-N-phenylbenzamide] | 1 to 10 µM | 1 to 10 µM
4 | CC1=C(Nc2ccc(S(=O)(=O)Nc3ccccn3)cc2)CCC1=O [Example 01-31, 4-((2-methyl-3-oxocyclopent-1-en-1-yl)amino)-N-(pyridin-2-yl)benzenesulfonamide] | 1 to 10 µM | 1 to 10 µM
5 | CC1=C(Nc2ccc(C(=O)NC3CCCCC3)cc2C)CCC1=O [Example 04-78, N-cyclohexyl-3-methyl-4-((2-methyl-3-oxocyclopent-1-en-1-yl)amino)benzamide] | 1 to 10 µM | 1 to 10 µM
6 | COc1ccc(NC(=O)c2cccc(NC3=C(C)C(=O)CC3)c2)cc1 [Example 04-4] | 1 to 10 µM | 1 to 10 µM
7 | COC(=O)c1ccc(NC2=C(C)C(=O)CCC2)c(Cl)c1 [Example 05-12, methyl 3-chloro-4((2-methyl-3-oxocyclohex-1-en-1-yl)amino)benzoate] | 1 to 10 µM | 1 to 10 µM
8 | CC1=C(Nc2cccc(Nc3ccccc3C)c2Cl)CCCC1=O [Example 05-80, 3-((2-chloro-3-(o-tolylamino)phenyl)amino)-2-methylcyclohex-2-enone] | 1 to 10 µM | < 1 µM
9 | CC1=C(Nc2ccc(C(=O)O)cc2I)CCC1=O [Examples 02-8] | 1 to 10 µM | 1 to 10 µM
10 | COc1cccc(NC(=O)c2ccc(NC3=C(C)C(=O)CC3)c(OC)c2)c1 [Example 04-58, 3-methoxy-N-(3-methoxyphenyl)-4-((2-methyl-3-oxocyclopent-1-en-1-yl)amino)-benzamide] | 1 to 10 µM | 1 to 10 µM
11 | COc1cc(C(=O)Nc2ccccc2C)ccc1NC1=C(C)C(=O)CC1 [Example 04-60, 3-methoxy-4-((2-methyl-3-oxocyclopent-1-en-1-yl)amino)-N-(o-tolyl)benzamide] | 1 to 10 µM | 1 to 10 µM
12 | CC1=C(Nc2ccc(S(N)(=O)=O)cc2)CCC1=O [Example 01-6] | > 10 µM | > 10 µM
13 | COc1cccc(NC(=O)c2ccc(NC3=C(C)C(=O)CC3)cc2)c1 [Example 03-11, N-(3-methoxyphenyl)-4-((2-methyl-3-oxocyclopent-1-en-1-yl)amino)benzamide] | > 10 µM | 1 to 10 µM
14 | CC1=C(Nc2ccc(C(=O)O)cc2Cl)CCC1=O [Examples 02-2] | 1 to 10 µM | 1 to 10 µM
15 | COc1cc(C(=O)Nc2ccccc2)ccc1NC1=C(C)C(=O)CC1 [Example 04-56, 3-methoxy-4-((2-methyl-3-oxocyclopent-1-en-1-yl)amino)-N-phenylbenzamide] | 1 to 10 µM | 1 to 10 µM
16 | COc1ccc(NC(=O)c2ccc(NC3=C(C)C(=O)CC3)cc2)cc1 [Example 03-6] | 1 to 10 µM | 1 to 10 µM
17 | CC1=C(Nc2ccc(C(=O)Nc3ccccc3C)c(Cl)c2)CCC1=O [Example 04-49, 2-chloro-4-((2-methyl-3-oxocyclopent-1-en-1-yl)amino)-N-(o-tolyl)benzamide] | > 10 µM | 1 to 10 µM
18 | CC1=C(Nc2cccc(C(=O)Nc3ccccc3)c2)CCC1=O [Example 03-23, 3((2-methyl-3-oxocyclopent-1-en-1-yl)amino)-N-phenylbenzamide] | 1 to 10 µM | 1 to 10 µM
19 | COc1ccc(NC(=O)c2ccc(NC3=C(C)C(=O)CC3)c(F)c2)cc1 [Example 05-17, 3-fluoro-N-(4-methoxyphenyl)-4-((2-methyl-3-oxocyclopent-1-en-1-yl)amino)benzamide] | 1 to 10 µM | 1 to 10 µM
20 | CC1=C(Nc2ccc(C(=O)NC3CCCCC3)cc2)CCC1=O [Example 03-19, N-cyclohexyl-4-((2-methyl-3-oxocyclopent-1-en-1-yl)amino)benzamide] | 1 to 10 µM | 1 to 10 µM

Row | SMILES | IC50 (BRD4_2) | IC50 [1]
21 | COc1ccc(NC(=O)c2ccc(Cl)c(NC3=C(C#N)C(=O)CCC3)c2)cc1 [Example 05-35, 4-chloro-3-((2-cyano-3-oxocyclohex-1-en-1-yl)amino)-N-(4-methoxyphenyl)benzamide] | > 10 µM | > 10 µM
22 | CC1=C(Nc2cccc(S(N)(=O)=O)c2)CCC1=O [Example 01-45, 3((2-methyl-3-oxocyclopent-1-en-1-yl)amino)benzenesulfonamide] | 1 to 10 µM | 1 to 10 µM
23 | COC(=O)c1cccc(NC(=O)c2ccc(Cl)c(NC3=C(C)C(=O)CCC3)c2)c1C [Example 04-92, methyl 3-(4-chloro-3-((2-methyl-3-oxocyclohex-1-en-1-yl)amino)benzamido)-2-methylbenzoate] | > 10 µM | 1 to 10 µM
24 | COc1cc(C(=O)Nc2cccc(C)c2)ccc1NC1=C(C)C(=O)CC1 [Example 04-61, 3-methoxy-4-((2-methyl-3-oxocyclopent-1-en-1-yl)amino)-N-(m-tolyl)benzamide] | 1 to 10 µM | 1 to 10 µM
25 | CNC(=O)c1ccc(NC2=C(C)C(=O)CC2)cc1OC [Example 04-65] | 1 to 10 µM | 1 to 10 µM
26 | CC1=C(Nc2ccc(C(=O)Nc3ccccc3)c(Cl)c2)CCC1=O [Example 04-45, 2-chloro-4-((2-methyl-3-oxocyclopent-1-en-1-yl)amino)-N-phenylbenzamide] | > 10 µM | > 10 µM
27 | N#CC1=C(Nc2cc(C(=O)O)ccc2Cl)CCCC1=O [Example 05-33, 4-chloro-3-((2-cyano-3-oxocyclohex-1-en-1-yl)amino)benzoic acid] | > 10 µM | > 10 µM
28 | COc1cc(NC2=C(C)C(=O)CC2)ccc1C(=O)Nc1ccccc1C [Example 04-72, 2-methoxy-4-((2-methyl-3-oxocyclopent-1-en-1-yl)amino)-N-(o-tolyl)benzamide] | 1 to 10 µM | < 1 µM
29 | CC1=C(N[C@H]2CC[C@@H](C(=O)Nc3ccccc3)CC2)CCC1=O [Example 04-36, (1S,4S)-4-((2-methyl-3-oxocyclopent-1-en-1-yl)amino)-N-phenylcyclohexane-carboxamide] | > 10 µM | > 10 µM
30 | COc1cc(NC2=C(C)C(=O)CC2)ccc1C(=O)Nc1cccc2ccccc12 [Example 04-67, 2-methoxy-4-((2-methyl-3-oxocyclopent-1-en-1-yl)amino)-N-(naphthalen-1-yl)benzamide] | > 10 µM | < 1 µM
31 | COc1cccc(NC(=O)c2ccc(NC3=C(C)C(=O)CC3)c(C)c2)c1 [Example 04-82, N-(3-methoxyphenyl)-3-methyl-4-((2-methyl-3-oxocyclopent-1-en-1-yl)amino)-benzamide] | 1 to 10 µM | 1 to 10 µM
32 | CC1=C(Nc2cccc(C(=O)Nc3cccc(C)c3)c2)CCC1=O [Example 04-6] | > 10 µM | 1 to 10 µM
33 | COc1cc(NC2=C(C)C(=O)CC2)ccc1C(=O)Nc1ccc(C)cc1 [Example 04-74, 2-methoxy-4-((2-methyl-3-oxocyclopent-1-en-1-yl)amino)-N-(p-tolyl)benzamide] | 1 to 10 µM | 1 to 10 µM
34 | CC1=C(Nc2ccc(C#N)cc2)CCC1=O [Example 01-7] | > 10 µM | > 10 µM
35 | COc1cc(C(=O)Nc2ccc(C)cc2)ccc1NC1=C(C)C(=O)CC1 [Example 04-62, 3-methoxy-4-((2-methyl-3-oxocyclopent-1-en-1-yl)amino)-N-(p-tolyl)benzamide] | 1 to 10 µM | 1 to 10 µM
36 | CC1=C(Nc2ccc(Cl)cc2C(=O)O)CCC1=O [Examples 02-5] | > 10 µM | > 10 µM
37 | CC1=C(Nc2ccc(C(=O)Nc3ccc(C)cc3)c(Cl)c2)CCC1=O [Example 04-51, 2-chloro-4-((2-methyl-3-oxocyclopent-1-en-1-yl)amino)-N-(p-tolyl)benzamide] | > 10 µM | > 10 µM
38 | CC1=C(Nc2ccc(C(=O)NC3CCCCC3)cc2Cl)CCC1=O [Example 04-14, 3-chloro-N-cyclohexyl-4-((2-methyl-3-oxocyclopent-1-en-1-yl)amino)benzamide] | 1 to 10 µM | < 1 µM
39 | CC1=C(Nc2ccc(C(=O)Nc3ccc(C)cc3)cc2C)CCC1=O [Example 04-86, 3-methyl-4-((2-methyl-3-oxocyclopent-1-en-1-yl)amino)-N-(p-tolyl)benzamide] | 1 to 10 µM | 1 to 10 µM
